Measurements published in ChEMBL document CHEMBL1137281, “Synthesis and biological evaluation of copper (II) complexes of sterically hindered o-aminophenol derivatives as antimicrobial agents” (2006).
Values after ≈ are worked out from the molar mass of the structure shown.

Tests used:
Type in all cases: functional
Pseudomonas aeruginosa = assay: Antimicrobial activity against Pseudomonas aeruginosa
Serratia marcescens = assay: Antimicrobial activity against Serratia marcescens
Escherichia coli = assay: Antibacterial activity against Escherichia coli
Bacillus subtilis = assay: Antibacterial activity against Bacillus subtilis
Micrococcus luteus = assay: Antimicrobial activity against Sarcina lutea
[1] = system: Staphylococcus saprophyticus; assay: Antibacterial activity against Staphylococcus saprophyticus
Cyberlindnera jadinii = assay: Antimicrobial activity against Candida utilis; conditions: Williopsis jadinii
Candida albicans = assay: Antimicrobial activity against Candida albicans
Candida boidinii = assay: Antimicrobial activity against Candida boidinii
Komagataella pastoris = assay: Antimicrobial activity against Pichia pastoris
Papiliotrema laurentii = assay: Antifungal activity against Cryptococcus laurentii
Lipomyces lipofer = assay: Antimicrobial activity against Lipomyces lipofer
[2] = Antimicrobial activity against Hansenula sp.; conditions: Pichia
Saccharomyces cerevisiae = assay: Antimicrobial activity against Saccharomyces cerevisiae
Rhodotorula mucilaginosa = assay: Antimicrobial activity against Rhodotorula rubra
Aspergillus niger = assay: Antifungal activity against Aspergillus niger

| MIC (Pseudomonas aeruginosa) | MIC (Serratia marcescens) | MIC (Escherichia coli) | MIC (Bacillus subtilis) | MIC (Micrococcus luteus) | MIC [1] | MIC (Cyberlindnera jadinii) | MIC (Candida albicans) | MIC (Candida boidinii) | MIC (Komagataella pastoris) | MIC (Papiliotrema laurentii) | MIC (Lipomyces lipofer) | MIC [2] | MIC (Saccharomyces cerevisiae) | MIC (Rhodotorula mucilaginosa) | MIC (Aspergillus niger) | Compound |
| --- | --- | --- | --- | --- | --- | --- | --- | --- | --- | --- | --- | --- | --- | --- | --- | --- |
| > 50 µg/mL | > 50 µg/mL | > 50 µg/mL | > 50 µg/mL | > 50 µg/mL | > 50 µg/mL | > 50 µg/mL | > 50 µg/mL | > 50 µg/mL | > 50 µg/mL | > 50 µg/mL | > 50 µg/mL | > 50 µg/mL | > 50 µg/mL | > 50 µg/mL | > 50 µg/mL | CC(C)(C)c1cc(Nc2ccccc2)c(O)c(C(C)(C)C)c1 |
| > 50 µg/mL | > 50 µg/mL | > 50 µg/mL | 25 µg/mL (≈ 113 µM) | 12.5 µg/mL (≈ 56.5 µM) | 12.5 µg/mL (≈ 56.5 µM) | > 50 µg/mL | > 50 µg/mL | > 50 µg/mL | 6.25 µg/mL (≈ 28.2 µM) | 6.25 µg/mL (≈ 28.2 µM) | 6.25 µg/mL (≈ 28.2 µM) | 6.25 µg/mL (≈ 28.2 µM) | 6.25 µg/mL (≈ 28.2 µM) | 50 µg/mL (≈ 226 µM) | > 50 µg/mL | CC(C)(C)c1cc(N)c(O)c(C(C)(C)C)c1 |

| Compound | MIC (Pseudomonas aeruginosa) | MIC (Serratia marcescens) | MIC (Escherichia coli) | MIC (Bacillus subtilis) | MIC (Micrococcus luteus) | MIC [1] | MIC (Cyberlindnera jadinii) | MIC (Candida albicans) | MIC (Candida boidinii) | MIC (Komagataella pastoris) | MIC (Papiliotrema laurentii) | MIC (Lipomyces lipofer) | MIC [2] | MIC (Saccharomyces cerevisiae) | MIC (Rhodotorula mucilaginosa) | MIC (Aspergillus niger) |
| --- | --- | --- | --- | --- | --- | --- | --- | --- | --- | --- | --- | --- | --- | --- | --- | --- |
| Nc1ccccc1O [QUESTIOMYCIN B] | > 50 µg/mL | > 50 µg/mL | > 50 µg/mL | > 25 µg/mL |  | > 50 µg/mL | > 50 µg/mL | > 50 µg/mL | > 50 µg/mL | > 50 µg/mL |  |  | > 50 µg/mL | > 50 µg/mL |  | > 50 µg/mL |
